Assay results taken from patent publication US20240174618A1, “SUBSTITUTED (2-HETEROARYLOXYPHENYL)SULFONATES, SALTS THEREOF AND THEIR USE AS HERBICIDAL AGENTS” (Bayer Aktiengesellschaft, priority 2021, published 2024).

How the values were obtained:
Type in all cases: in vivo
Veronica persica (VERPE) [1] = assay: B. Herbicidal post-emergence efficacy, VERPE
Method: (§1) Seeds of mono- and dicotyledonous weed plants were placed in plastic pots in sandy loam soil (doubly sown with in each case one species of mono- or dicotyledonous weed plants per pot), covered with soil and cultivated in a greenhouse under controlled growth conditions. 2 to 3 weeks after sowing, the test plants were treated at the one-leaf stage. The compounds of the invention, formulated in the form of wettable powders (WP) or as emulsion concentrates (EC), were applied onto the green parts of the plants as aqueous suspension or emulsion with addition of 0.5% additive at a water application rate of 600 liters per hectare (converted). After the test plants had been kept in the greenhouse under optimum growth conditions for about 3 weeks, the activity of the preparations was rated visually in comparison to untreated controls.
(§2) For example, • 100% efficacy=plants have died, • 0% efficacy=like untreated control plants
(§3) Tables B1a to B12c below show the effects of selected inventive compounds of the general formula (I) according to table 1 on various harmful plants at an application rate corresponding to 1280 g/ha or less, which were obtained by the experimental procedure mentioned above.

Poa annua (POAAN) [2] = assay: A. Herbicidal pre-emergence efficacy, POAAN; details: dosage 1280 g/ha
Excerpt: (§4) Seeds of mono- and dicotyledonous weed plants were placed in plastic pots in sandy loam soil (doubly sown with one species each of mono- or dicotyledonous weed plants per pot) and covered with soil. The compounds of the invention, formulated in the form of wettable powders (WP) or as emulsion concentrates (EC), were then applied onto the surface of the covering soil as aqueous suspension or emulsion with addition of 0.5% additive at a water application rate of 600 liters per hectare (converted). After the treatment, the pots were placed in a greenhouse and kept under good growth conditions for the test plants. After about 3 weeks, the efficacy of the preparations was scored visually in comparison with untreated controls as percentages.
(§5) For example, • 100% efficacy=plants have died, • 0% efficacy=like untreated control plants.
(§6) Tables A1a to A12c below show the effects of selected compounds of the general formula (I) according to table 1 on various harmful plants at an application rate corresponding to 1280 g/ha or less, which were obtained by the experimental procedure mentioned above.

[3] = test system: Echinochloa crus-galli (ECHCG); assay: A. Herbicidal pre-emergence efficacy, ECHCG; details: scored visually after about 3 weeks vs untreated controls
Excerpt: as §4, §5, §6

[4] = test system: Abutilon theophrasti (ABUTH); assay: B. Herbicidal post-emergence efficacy, ABUTH; details: rated visually after about 3 weeks
Method: as §1, §2, §3

Poa annua (POAAN) [5] = assay: B. Herbicidal post-emergence efficacy, POAAN; details: 1280 g/ha
Method: as §1, §2, §3

[6] = test system: Amaranthus retroflexus (AMARE); assay: A. Herbicidal pre-emergence efficacy, AMARE
Excerpt: as §4, §5, §6

Lolium rigidum (LOLRI) = assay: A. Herbicidal pre-emergence efficacy, LOLRI; details: dosage 1280 g/ha
Excerpt: as §4, §5, §6

[7] = test system: Abutilon theophrasti (ABUTH); assay: A. Herbicidal pre-emergence efficacy, ABUTH; details: scored visually after about 3 weeks vs untreated controls
Excerpt: as §4, §5, §6

Stellaria media (STEME) [8] = assay: B. Herbicidal post-emergence efficacy, STEME
Method: as §1, §2, §3

Stellaria media (STEME) [9] = assay: A. Herbicidal pre-emergence efficacy, STEME
Excerpt: as §4, §5, §6

Kochia scoparia (KCHSC) [10] = assay: B. Herbicidal post-emergence efficacy, KCHSC; details: for Post-emergence efficacy against KCHSC in %: rated visually after about 3 weeks; for Post-emergence efficacy against KCHSC: 1280 g/ha
Method: as §1, §2, §3

[11] = test system: Amaranthus retroflexus (AMARE); assay: B. Herbicidal post-emergence efficacy, AMARE
Method: as §1, §2, §3

Kochia scoparia (KCHSC) [12] = assay: A. Herbicidal pre-emergence efficacy, KCHSC
Excerpt: as §4, §5, §6

[13] = test system: Digitaria sanguinalis (DIGSA); assay: A. Herbicidal pre-emergence efficacy, DIGSA; details: scored visually after about 3 weeks vs untreated controls
Excerpt: as §4, §5, §6

Setaria viridis (SETVI) = assay: A. Herbicidal pre-emergence efficacy, SETVI
Excerpt: as §4, §5, §6

[14] = test system: Matricaria inodora (MATIN); assay: A. Herbicidal pre-emergence efficacy, MATIN
Excerpt: as §4, §5, §6

Veronica persica (VERPE) [15] = assay: A. Herbicidal pre-emergence efficacy, VERPE
Excerpt: as §4, §5, §6

[16] = test system: Echinochloa crus-galli (ECHCG); assay: B. Herbicidal post-emergence efficacy, ECHCG; details: 1280 g/ha, rated visually after about 3 weeks
Method: as §1, §2, §3

[17] = pre-emergence, dosage 1280 g/ha
[18] = 320 g/ha, scored visually after about 3 weeks vs untreated controls

SMILES | Post-emergence efficacy against VERPE (Veronica persica (VERPE) [1]; 320 g/ha) | Post-emergence efficacy against VERPE (Veronica persica (VERPE) [1]; 1280 g/ha) | Pre-emergence efficacy against POAAN (Poa annua (POAAN) [2]) | Pre-emergence efficacy against ECHCG ([3]; 1280 g/ha) | Post-emergence efficacy against ABUTH in % ([4]; 1280 g/ha) | Post-emergence efficacy against POAAN (Poa annua (POAAN) [5]) | Pre-emergence efficacy against AMARE in % ([6]; 1280 g/ha) | Pre-emergence efficacy against LOLRI (Lolium rigidum (LOLRI)) | Pre-emergence efficacy against ABUTH ([7]; 1280 g/ha) | Post-emergence efficacy against STEME (Stellaria media (STEME) [8]; 1280 g/ha) | Pre-emergence efficacy against STEME (Stellaria media (STEME) [9]; dosage 1280 g/ha) | Post-emergence efficacy against KCHSC in % (Kochia scoparia (KCHSC) [10]; 320 g/ha) | Post-emergence efficacy against KCHSC (Kochia scoparia (KCHSC) [10]) | Post-emergence efficacy against AMARE ([11]; 320 g/ha) | Post-emergence efficacy against AMARE ([11]; 1280 g/ha) | Pre-emergence efficacy against KCHSC (Kochia scoparia (KCHSC) [12]; [17]) | Pre-emergence efficacy against SETVI (Setaria viridis (SETVI); dosage 320 g/ha) | Pre-emergence efficacy against SETVI (Setaria viridis (SETVI); dosage 1280 g/ha) | Pre-emergence efficacy against MATIN [14, 17] | Pre-emergence efficacy against AMARE in % ([6]; 320 g/ha) | other results
COCCS(=O)(=O)Oc1ccccc1Oc1ncc(Cl)cn1 [Example I-20] | 90% | 100% | 90% | 100% | 90% | 90% | 90% | 90% | 100% | 100% | 100% | 90% | 100% | 90% | 100% | 100% | 90% | 100% | 100% | – | Pre-emergence efficacy against ABUTH ([7]; 80 g/ha): 100%; Pre-emergence efficacy against ABUTH ([7]; 320 g/ha): 100%; Pre-emergence efficacy against STEME (Stellaria media (STEME) [9]; dosage 320 g/ha): 100%; Pre-emergence efficacy against KCHSC (Kochia scoparia (KCHSC) [12]; 80 g/ha, scored visually after about 3 weeks vs untreated controls): 90%; Pre-emergence efficacy against KCHSC (Kochia scoparia (KCHSC) [12]; pre-emergence, dosage 320 g/ha): 90%; Pre-emergence efficacy against DIGSA ([13]; 320 g/ha): 100%; Pre-emergence efficacy against DIGSA ([13]; 1280 g/ha): 100%
CS(=O)(=O)Oc1ccccc1Oc1ncc(Cl)cn1 [Example I-1] | 90% | 100% | 90% | 100% | – | – | 100% | – | 100% | – | – | 100% | 100% | 100% | 100% | 100% | 90% | 100% | 100% | 100% | Pre-emergence efficacy against AMARE in % ([6]; 80 g/ha): 100%; Post-emergence efficacy against KCHSC in % (Kochia scoparia (KCHSC) [10]; 80 g/ha): 90%; Post-emergence efficacy against AMARE ([11]; 80 g/ha): 100%; Pre-emergence efficacy against KCHSC (Kochia scoparia (KCHSC) [12]; pre-emergence, dosage 320 g/ha): 100%; Pre-emergence efficacy against VERPE in % (Veronica persica (VERPE) [15]; 320 g/ha): 100%; Pre-emergence efficacy against VERPE in % (Veronica persica (VERPE) [15]; 1280 g/ha): 100%; Pre-emergence efficacy against MATIN [14, 18]: 90%
O=S(=O)(CCC1CC1(Cl)Cl)Oc1c(F)cccc1Oc1ncc(Cl)cn1 (stereo not drawn) [Example I-51] | – | 90% | 100% | 90% | 90% | 90% | 100% | 90% | – | 90% | 100% | – | 90% | 90% | 90% | 100% | 90% | 90% | 90% | 100% | Post-emergence efficacy against ABUTH in % ([4]; 320 g/ha): 90%; Pre-emergence efficacy against AMARE in % ([6]; 80 g/ha): 90%; Post-emergence efficacy against STEME (Stellaria media (STEME) [8]; 80 g/ha): 90%; Post-emergence efficacy against STEME (Stellaria media (STEME) [8]; 320 g/ha): 90%; Post-emergence efficacy against ECHCG in % [16]: 90%; Pre-emergence efficacy against STEME (Stellaria media (STEME) [9]; dosage 320 g/ha): 90%; Post-emergence efficacy against AMARE ([11]; 80 g/ha): 90%; Pre-emergence efficacy against DIGSA ([13]; 320 g/ha): 90%; Pre-emergence efficacy against DIGSA ([13]; 1280 g/ha): 100%; Pre-emergence efficacy against VERPE in % (Veronica persica (VERPE) [15]; 1280 g/ha): 100%; Pre-emergence efficacy against MATIN [14, 18]: 90%
CC(C)S(=O)(=O)Oc1ccccc1Oc1ncc(Cl)cn1 [Example I-18] | 90% | 90% | 90% | 100% | 90% | 90% | 100% | 90% | 100% | 90% | 90% | 100% | 100% | 100% | 100% | – | – | 90% | 90% | 100% | Pre-emergence efficacy against ECHCG ([3]; 320 g/ha): 90%; Pre-emergence efficacy against ABUTH ([7]; 320 g/ha): 90%; Post-emergence efficacy against ECHCG in % [16]: 90%; Pre-emergence efficacy against VERPE in % (Veronica persica (VERPE) [15]; 320 g/ha): 90%; Pre-emergence efficacy against VERPE in % (Veronica persica (VERPE) [15]; 1280 g/ha): 100%
O=S(=O)(CCC(F)=C(F)F)Oc1c(Br)cccc1Oc1ncc(Cl)cn1 [Example I-72] | 100% | 100% | 100% | – | 100% | 90% | 100% | 90% | 90% | 100% | 100% | 100% | 100% | 100% | 100% | 90% | 90% | 100% | – | 90% | Post-emergence efficacy against VERPE (Veronica persica (VERPE) [1]; 80 g/ha): 100%; Post-emergence efficacy against ABUTH in % ([4]; 320 g/ha): 90%; Post-emergence efficacy against STEME (Stellaria media (STEME) [8]; 80 g/ha): 90%; Post-emergence efficacy against STEME (Stellaria media (STEME) [8]; 320 g/ha): 100%; Post-emergence efficacy against ECHCG in % [16]: 100%; Pre-emergence efficacy against STEME (Stellaria media (STEME) [9]; dosage 320 g/ha): 90%; Post-emergence efficacy against KCHSC in % (Kochia scoparia (KCHSC) [10]; 80 g/ha): 90%; Post-emergence efficacy against AMARE ([11]; 80 g/ha): 100%; Pre-emergence efficacy against DIGSA ([13]; 320 g/ha): 90%; Pre-emergence efficacy against DIGSA ([13]; 1280 g/ha): 100%; Pre-emergence efficacy against VERPE in % (Veronica persica (VERPE) [15]; 320 g/ha): 90%; Pre-emergence efficacy against VERPE in % (Veronica persica (VERPE) [15]; 1280 g/ha): 90%
